Source: the supplement of paper PMC13380429

How the values were obtained:
Details in all cases: 72 h
Caco-2 [1] = experiment: cell viability relative to DMSO; higher = less toxic
Calu-3 [2] = experiment: as above
HepG2 [3] = experiment: as above
U2OS [4] = experiment: as above
Vero E6 [5] = experiment: as above
Caco-2 [6] = experiment: relative viability EC50 (midpoint between 100% and the lowest measured viability); higher = less toxic
Calu-3 [7] = experiment: as above
U2OS [8] = experiment: as above
Caco-2 [9] = experiment: drug sensitivity score (DSS) for viability; higher = more toxic; extreme values may be limits of the assay
Calu-3 [10] = experiment: as above
HepG2 [11] = experiment: as above
U2OS [12] = experiment: as above
Vero E6 [13] = experiment: as above
HepG2 [14] = experiment: relative viability EC50 (midpoint between 100% and the lowest measured viability); higher = less toxic

COc1ccc(CCc2nc3cc(-c4c(C)noc4C)ccc3n2C[C@H](C)N2CCOCC2)cc1Cl [SGC-CBP30]
cell viability (Caco-2 [1]; 1 nM): 93.5%
cell viability (Caco-2 [1]; 10 nM): 97.2%
cell viability (Caco-2 [1]; 100 nM): 106%
cell viability (Caco-2 [1]; 1000 nM): 87.9%
cell viability (Caco-2 [1]; 10000 nM): 76.8%
cell viability (Calu-3 [2]; 1 nM): 99.4%
cell viability (Calu-3 [2]; 10 nM): 102%
cell viability (Calu-3 [2]; 100 nM): 88.3%
cell viability (Calu-3 [2]; 1000 nM): 90.9%
cell viability (Calu-3 [2]; 10000 nM): 86.4%
cell viability (HepG2 [3]; 1 nM): 90.4%
cell viability (HepG2 [3]; 10 nM): 105%
cell viability (HepG2 [3]; 100 nM): 93.6%
cell viability (HepG2 [3]; 1000 nM): 94.9%
cell viability (HepG2 [3]; 10000 nM): 70.4%
cell viability (U2OS [4]; 1 nM): 94.7%
cell viability (U2OS [4]; 10 nM): 95.5%
cell viability (U2OS [4]; 100 nM): 102%
cell viability (U2OS [4]; 1000 nM): 98.7%
cell viability (U2OS [4]; 10000 nM): 79.3%
cell viability (Vero E6 [5]; 1 nM): 89.8%
cell viability (Vero E6 [5]; 10 nM): 97.6%
cell viability (Vero E6 [5]; 100 nM): 89.5%
cell viability (Vero E6 [5]; 1000 nM): 94.5%
cell viability (Vero E6 [5]; 10000 nM): 53.9%
relative viability EC50 (Caco-2 [6]): > 10000 nM
relative viability EC50 (Calu-3 [7]): > 10000 nM
relative viability EC50 (U2OS [8]): > 10000 nM
drug sensitivity score (Caco-2 [9]): 2.2
drug sensitivity score (Calu-3 [10]): 1.7
drug sensitivity score (HepG2 [11]): 2.1
drug sensitivity score (U2OS [12]): 0.8
drug sensitivity score (Vero E6 [13]): 3.3

Cc1c(C(=O)N2CCOc3ccc(-c4ccc(N)nc4)cc3C2)ccc(S(C)(=O)=O)c1F [XL388]
cell viability (Caco-2 [1]; 1 nM): 115%
cell viability (Caco-2 [1]; 10 nM): 105%
cell viability (Caco-2 [1]; 100 nM): 103%
cell viability (Caco-2 [1]; 1000 nM): 77.8%
cell viability (Caco-2 [1]; 10000 nM): 43%
cell viability (Calu-3 [2]; 1 nM): 102%
cell viability (Calu-3 [2]; 10 nM): 104%
cell viability (Calu-3 [2]; 100 nM): 103%
cell viability (Calu-3 [2]; 1000 nM): 68.5%
cell viability (Calu-3 [2]; 10000 nM): 33.7%
cell viability (HepG2 [3]; 1 nM): 110%
cell viability (HepG2 [3]; 10 nM): 115%
cell viability (HepG2 [3]; 100 nM): 99.5%
cell viability (HepG2 [3]; 1000 nM): 92.5%
cell viability (HepG2 [3]; 10000 nM): 39%
cell viability (U2OS [4]; 1 nM): 102%
cell viability (U2OS [4]; 10 nM): 101%
cell viability (U2OS [4]; 100 nM): 102%
cell viability (U2OS [4]; 1000 nM): 98.3%
cell viability (U2OS [4]; 10000 nM): 50.2%
cell viability (Vero E6 [5]; 1 nM): 110%
cell viability (Vero E6 [5]; 10 nM): 108%
cell viability (Vero E6 [5]; 100 nM): 103%
cell viability (Vero E6 [5]; 1000 nM): 95.6%
cell viability (Vero E6 [5]; 10000 nM): 66.7%
relative viability EC50 (Caco-2 [6]): 1200 nM
relative viability EC50 (Calu-3 [7]): 1040 nM
relative viability EC50 (HepG2 [14]): 2160 nM
drug sensitivity score (Caco-2 [9]): 6.1
drug sensitivity score (Calu-3 [10]): 7.7
drug sensitivity score (HepG2 [11]): 4.6
drug sensitivity score (U2OS [12]): 2.8
drug sensitivity score (Vero E6 [13]): 2.3

CC(=O)Nc1ccc(CC(=O)O)cc1 [actarit]
cell viability (Caco-2 [1]; 1 nM): 96%
cell viability (Caco-2 [1]; 10 nM): 94%
cell viability (Caco-2 [1]; 100 nM): 93.7%
cell viability (Caco-2 [1]; 1000 nM): 99.9%
cell viability (Caco-2 [1]; 10000 nM): 96%
cell viability (Calu-3 [2]; 1 nM): 105%
cell viability (Calu-3 [2]; 10 nM): 104%
cell viability (Calu-3 [2]; 100 nM): 117%
cell viability (Calu-3 [2]; 1000 nM): 107%
cell viability (Calu-3 [2]; 10000 nM): 97.8%
cell viability (U2OS [4]; 1 nM): 98.1%
cell viability (U2OS [4]; 10 nM): 101%
cell viability (U2OS [4]; 100 nM): 94.8%
cell viability (U2OS [4]; 1000 nM): 103%
cell viability (U2OS [4]; 10000 nM): 96.4%
relative viability EC50 (Caco-2 [6]): > 10000 nM
relative viability EC50 (Calu-3 [7]): > 10000 nM
relative viability EC50 (U2OS [8]): > 10000 nM
drug sensitivity score (Caco-2 [9]): 0
drug sensitivity score (Calu-3 [10]): 0
drug sensitivity score (U2OS [12]): 0

Cc1c(N)nc([C@H](CC(N)=O)NC[C@H](N)C(N)=O)nc1C(=O)N[C@H](C(=O)N[C@H](C)[C@@H](O)[C@H](C)C(=O)N[C@H](C(=O)NCCc1nc(-c2nc(C(=O)NCCC[S+](C)C)cs2)cs1)[C@@H](C)O)[C@@H](OC1OC(CO)C(O)C(O)C1OC1OC(CO)C(O)C(OC(N)=O)C1O)c1cnc[nH]1 (some centres undefined) [bleomycin]
cell viability (Caco-2 [1]; 1 nM): 98.9%
cell viability (Caco-2 [1]; 10 nM): 93.8%
cell viability (Caco-2 [1]; 100 nM): 92.3%
cell viability (Caco-2 [1]; 1000 nM): 89.5%
cell viability (Caco-2 [1]; 10000 nM): 76.8%
cell viability (Calu-3 [2]; 1 nM): 102%
cell viability (Calu-3 [2]; 10 nM): 91.8%
cell viability (Calu-3 [2]; 100 nM): 94.7%
cell viability (Calu-3 [2]; 1000 nM): 66.2%
cell viability (Calu-3 [2]; 10000 nM): 49.8%
cell viability (HepG2 [3]; 1 nM): 93.4%
cell viability (HepG2 [3]; 10 nM): 93.7%
cell viability (HepG2 [3]; 100 nM): 95.8%
cell viability (HepG2 [3]; 1000 nM): 66.2%
cell viability (HepG2 [3]; 10000 nM): 50.8%
cell viability (U2OS [4]; 1 nM): 97%
cell viability (U2OS [4]; 10 nM): 101%
cell viability (U2OS [4]; 100 nM): 93.5%
cell viability (U2OS [4]; 1000 nM): 88.4%
cell viability (U2OS [4]; 10000 nM): 55.6%
cell viability (Vero E6 [5]; 1 nM): 97.4%
cell viability (Vero E6 [5]; 10 nM): 103%
cell viability (Vero E6 [5]; 100 nM): 97.5%
cell viability (Vero E6 [5]; 1000 nM): 75.5%
cell viability (Vero E6 [5]; 10000 nM): 60%
relative viability EC50 (Caco-2 [6]): > 10000 nM
relative viability EC50 (Calu-3 [7]): 536 nM
drug sensitivity score (Caco-2 [9]): 1.7
drug sensitivity score (Calu-3 [10]): 6.9
drug sensitivity score (HepG2 [11]): 6.8
drug sensitivity score (U2OS [12]): 3.8
drug sensitivity score (Vero E6 [13]): 4.8
